Source: patent publication US20170066797A1, “WITHAFERIN A ANALOGS AND USES THEREOF” (Whitehead Institute for Biomedical Research, priority 2008, published 2017)

Key:
[1] = test system: minimal heat shock response element derived from the promoter region of the Hsp70B gene; test: Heat shock reporter (EGFP) induction; format: cell-based; conditions: overnight exposure, FIG. 8
Experimental: FIG. 8. Heat shock reporter induction measured by micro plate fluorimeter. Reporter cells stably transduced with a plasmid encoding enhanced green fluorescent protein (EGFP) under the control of a minimal heat shock response element were exposed to 2,3-dihydrowithaferin A-3β-O-sulfate (WA-SO4) or withaferin A (WA) at the indicated concentrations overnight. Relative fluorescence units (RFU) per well were determined as a measure of reporter activation. Each point represents the mean of nine determinations from three independent experiments.
Immortalized mouse embryo fibroblasts derived from homozygous Hsf1 knockout mice or their wild type littermates were exposed overnight to equitoxic concentrations of 1 or the known heat shock-inducing Hsp90 inhibitor gendanamycin. Whole cell lysates were prepared in non-ionic detergent buffer and immunoblotted for relative levels of Hsp72, a highly inducible member of the Hsp70 family of molecular chaperones, using monoclonal antibody C92F3A-5 (StressMarq Biosciences, Victoria, BC). Reactivity was detected using peroxidase-conjugated secondary antibody and chemiluminescent detection. To evaluate the relative ability of compounds to induce a heat shock response at the transcriptional level, a reporter cell line was used as previously described (Turbyville, et al., J. Nat. Prod. (2006) 69: 178-184, incorporated herein by reference). […]

[2] = biological target: T1, Annexin 2 (Homo sapiens, UniProt P07355); test: Pull-down with biotinylated withaferin A on NeutrAvidin beads with competition; format: binding; conditions: competition with WA 40 μM, 36 kDa band, FIG. 11
T1 construct: incubated with pre-cleared whole cell extract that had been previously supplemented with WA (40 μM) or an equal volume of DMSO; endogenous in cells
T1 sequence (P07355 whole entry, species assumed): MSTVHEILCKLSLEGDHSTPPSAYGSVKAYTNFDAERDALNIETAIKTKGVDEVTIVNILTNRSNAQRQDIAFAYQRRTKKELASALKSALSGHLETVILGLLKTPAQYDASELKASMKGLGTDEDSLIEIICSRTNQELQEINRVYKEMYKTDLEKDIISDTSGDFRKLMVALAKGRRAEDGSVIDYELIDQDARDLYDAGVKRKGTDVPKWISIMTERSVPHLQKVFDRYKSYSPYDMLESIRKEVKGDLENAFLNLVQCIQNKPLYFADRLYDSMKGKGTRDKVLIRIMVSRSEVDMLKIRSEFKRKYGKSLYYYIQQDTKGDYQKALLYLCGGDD
Experimental: FIG. 11. Stable and specific binding of Annexin 2 by withaferin A. Biotinylated withaferin A (WA) was captured on NeutrAvidin (NA)-coated beads and incubated with pre-cleared whole cell extract that had been previously supplemented with WA (40 μM) or an equal volume of DMSO. After low stringency washes, proteins bound to beads were eluted, size fractioned by SDS-PAGE, stained with Sypro Ruby, and visualized by UV illumination. The arrowhead indicates the position of a 36 kDa band effectively competed away by WA. Pre-clear lane: Proteins in whole cell extract that bound non-specifically to NA beads alone (no immobilized WA present) during pre-clearing incubation.

[3] = test system: primary astrocytes / primary neurons co-culture; test: Glutathione depletion astrocyte-neuron co-culture model (HCA, MAP-2 readout); format: cell-based, rat; conditions: astrocytes pre-treated 24 h, then 5 mM homocysteic acid 48 h, FIG. 14
Experimental: FIGS. 14A and 14B. (A) Withaferin A (WA) mediates astrocyte-dependent neuronal protection. Primary astrocytes cultured from the cerebral cortices of postnatal rat pups, were treated with WA for 24 h, and were washed with serum-containing media to completely remove WA from the culture media. […] 48 h later neuronal viability was assessed by quantifying the neuronal marker MAP-2. (B) WA-mediated neuroprotection from oxidative stress.
WA was tested in a second model for neuroprotection that utilizes primary astrocytes cultured from the cerebral cortices of postnatal day 1-3 rat pups. In the CNS, astrocytes play a pivotal role in protecting neurons from oxidative stress, a hallmark of nearly all neurodegenerative diseases and disorders. […]
In this assay, which is summarized in FIG. 13, primary astrocytes were isolated from the cerebral cortices of postnatal day 1-3 rat pups, allowed to grow to confluency for ˜2 weeks, and then treated with test compound for 24 h. […] Quantification of the neuron-specific protein microtubule-associated protein-2 (MAP-2) is used to monitor neuronal specific death in this astrocyte-neuron co-culture model as described previously (Carrier et al., J. Neuroscience Methods, 154: 239-244.2006). […] HRP activity is then measured using a reaction buffer containing 150 uM amplex red (Molecular Probes) and 800 uM hydrogen peroxide (Sigma). […]

[4] = test system: Ewing's sarcoma cells (CHP-100); conditions: 72 hours, MTT, FIG. 5
Text: Relative viable cell number was quantified by MTT assay. Results are presented as a percentage compared to wells exposed to DMSO alone. […] Points: mean of triplicate determinations; Error bars: s.d.

Structure (SMILES): CC1=C(CO)C(=O)OC([C@@H](C)C2CCC3C4C[C@H]5O[C@]56[C@@H](O)C=CC(=O)[C@]6(C)C4CC[C@@]32C)C1 (stereo partly shown) [Withaferin A]
- heat shock reporter induction [1]: response can be induced at compound exposures compatible with cell survival
- binding to annexin II [2]: binds stably and selectively to annexin II
- astrocyte-dependent protection of neurons from oxidative stress (MAP-2) [3]: enhance the protection of neurons exposed to oxidative stress
- inhibition of tumor cell growth in vitro, CHP-100 [4]: inhibit tumor growth in Ewing's sarcoma
